How the values were obtained:
Format in all cases: cell-based
PLK1 = molecular target: T1, PLK1 (Homo sapiens, UniProt P53350); assay: Luciferase assay for PLK1 in HeLa LgBit (Plk1-HiBit KI) cell line; conditions: 300 nM compound, luminescence after 9 hours
T1 construct: endogenous in cells; host or cells: HeLa LgBit (Plk1-HiBit KI): HeLa stably expressing LgBit, with a CRISPR/Cas9 knock-in of HiBit at the endogenous PLK1 locus
In short: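 HeLa cells stably expressing LgBit, with HiBit knocked in at the C-terminus of endogenous Plk1, released from a 24 h 2 mM thymidine block and grown 18 h. Endurazine added, then compound at 300 nM; luminescence tracked in real time, expressed as ratio to DMSO.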

MRC-5 cell line = assay: Cell viability assay for MRC-5 cell line (EZ-Cytox); conditions: Homo sapiens, MRC5, 120 h; MRC-5 normal cell line, 5 days, 10000 nM to 1.52 nM; N.D. = no cytotoxicity until 10 μM; read-out: Activity: IC50 value of Exemplary Compound to MRC-5 cell line
Method: 4. Cell Viability Assay for MRC-5 Cell Line
(1) Culture of MRC-5 Cell Line
Passage of cultured cells was maintained within P15.
(2) Treatment of Compounds of the Present Invention
Then, it was cultured in 37° C.
(3) Cytotoxicity Experiment
CO2 incubator for 4 hours.

NCI-H526 cell line = assay: Cell viability assay for H526 cell (EZ-Cytox); conditions: Homo sapiens, NCI-H526, 120 h; H526 cells, 5 days, 3000 nM to 0.46 nM
In short: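 NCI-H526 cells were exposed to compound in CO2 incubator culture for 5 days. Viability was read by EZ-Cytox absorbance at 450 nm after 3 min shaking, giving IC50 values.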

T1 sequence (P53350 whole entry): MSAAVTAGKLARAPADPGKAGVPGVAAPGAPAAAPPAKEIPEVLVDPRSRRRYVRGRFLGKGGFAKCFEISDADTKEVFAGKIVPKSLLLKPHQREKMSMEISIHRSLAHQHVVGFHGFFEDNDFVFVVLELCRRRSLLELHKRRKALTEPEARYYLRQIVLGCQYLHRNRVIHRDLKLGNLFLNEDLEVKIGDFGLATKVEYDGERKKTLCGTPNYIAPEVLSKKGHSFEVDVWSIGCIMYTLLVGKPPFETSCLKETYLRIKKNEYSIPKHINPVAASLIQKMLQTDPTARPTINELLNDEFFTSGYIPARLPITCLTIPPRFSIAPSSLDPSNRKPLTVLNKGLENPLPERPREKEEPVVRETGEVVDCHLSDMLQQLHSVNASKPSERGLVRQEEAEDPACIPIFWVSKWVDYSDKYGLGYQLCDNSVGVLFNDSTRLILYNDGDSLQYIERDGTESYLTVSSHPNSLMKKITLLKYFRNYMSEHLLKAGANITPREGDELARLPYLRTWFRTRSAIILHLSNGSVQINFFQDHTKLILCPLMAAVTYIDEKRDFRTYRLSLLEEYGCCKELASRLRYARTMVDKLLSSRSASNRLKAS

SMILES | Activity: ratio of the luminescense value of each Exemplary Compound treatment group to DMSO treatment group (PLK1) | IC50 (MRC-5 cell line) | IC50 (NCI-H526 cell line)
COc1cc(C(=O)N2CCN(CCCN3CCN(c4ccc5c(c4)C(=O)N(C4CCC(=O)NC4=O)C5=O)CC3)CC2)ccc1Nc1ncc2c(n1)N(C1CCCC1)CC(F)(F)C(=O)N2C (stereo not drawn) [Compound 90, 5-(4-(3-(4-(4-((9-cyclopentyl-7,7-difluoro-5-methyl-6-oxo-6,7,8,9-tetrahydro-5H-pyrimido[4,5-b][1,4]diazepin-2-yl)amino)-3-methoxybenzoyl)piperazin-1-yl)propyl)piperazin-1-yl)-2-(2,6-dioxopiperidin-3-yl)isoindoline-1,3-dione] | ++ (++<0.6) | > 10 µM | < 400 nM
COc1cc(C(=O)NN2CCN(C3CCN(c4cccc5c4C(=O)N(C4CCC(=O)NC4=O)C5=O)C3)CC2)ccc1Nc1ncc2c(n1)N(C1CCCC1)CC(F)(F)C(=O)N2C (stereo not drawn) [Compound 51, 4-((9-cyclopentyl-7,7-difluoro-5-methyl-6-oxo-6,7,8,9-tetrahydro-5H-pyrimido[4,5-b][1,4]diazepin-2-yl)amino)-N-(4-(1-(2-(2,6-dioxopiperidin-3-yl)-1,3-dioxoisoindolin-4-yl)pyrrolidin-3-yl)piperazin-1-yl)-3-methoxybenzamide] | ++ (++<0.6) | > 10 µM | < 30 nM
COc1cc(C(=O)NC2CCCN(C(=O)CCN3CCN(c4cccc5c4C(=O)N(C4CCC(=O)NC4=O)C5=O)CC3)C2)ccc1Nc1ncc2c(n1)N(C1CCCC1)CC(F)(F)C(=O)N2C (stereo not drawn) [Compound 123, 4-((9-cyclopentyl-7,7-difluoro-5-methyl-6-oxo-6,7,8,9-tetrahydro-5H-pyrimido[4,5-b][1,4]diazepin-2-yl)amino)-N-(1-(3-(4-(2-(2,6-dioxopiperidin-3-yl)-1,3-dioxoisoindolin-4-yl)piperazin-1-yl)propanoyl)piperidin-3-yl)-3-methoxybenzamide] | ++ (++<0.6) | > 10 µM | < 100 nM
CN1C(=O)C(F)(F)CN(C2CCCC2)c2nc(Nc3ccc(C(=O)NC4CCN(C(=O)CCN5CCN(c6cccc7c6C(=O)N(C6CCC(=O)NC6=O)C7=O)CC5)CC4)cc3OC(F)(F)F)ncc21 (stereo not drawn) [Compound 74, 4-((9-cyclopentyl-7,7-difluoro-5-methyl-6-oxo-6,7,8,9-tetrahydro-5H-pyrimido[4,5-b][1,4]diazepin-2-yl)amino)-N-(1-(3-(4-(2-(2,6-dioxopiperidin-3-yl)-1,3-dioxoisoindolin-4-yl)piperazin-1-yl)propanoyl)piperidin-4-yl)-3-(trifluoromethoxy)benzamide] | ++ (++<0.6) | > 10 µM | < 200 nM
COc1cc(C(=O)NC2CCN(C(=O)CCN3CCN(c4cccc5c4CN(C4CCC(=O)NC4=O)C5=O)CC3)CC2)ccc1Nc1ncc2c(n1)N(C(C)C)CC(F)(F)C(=O)N2C (stereo not drawn) [Compound 133, 4-((7,7-difluoro-9-isopropyl-5-methyl-6-oxo-6,7,8,9-tetrahydro-5H-pyrimido[4,5-b][1,4]diazepin-2-yl)amino)-N-(1-(3-(4-(2-(2,6-dioxopiperidin-3-yl)-1-oxoisoindolin-4-yl)piperazin-1-yl)propanoyl)piperidin-4-yl)-3-methoxybenzamide] | ++ (++<0.6) | > 10 µM | < 50 nM
COc1cc(C(=O)NCC2CCN(CCC3CCN(c4cccc5c4C(=O)N(C4CCC(=O)NC4=O)C5=O)C3)CC2)ccc1Nc1ncc2c(n1)N(C1CCCC1)CC(F)(F)C(=O)N2C (stereo not drawn) [Compound 50, 4-((9-cyclopentyl-7,7-difluoro-5-methyl-6-oxo-6,7,8,9-tetrahydro-5H-pyrimido[4,5-b][1,4]diazepin-2-yl)amino)-N-((1-(2-(1-(2-(2,6-dioxopiperidin-3-yl)-1,3-dioxoisoindolin-4-yl)pyrrolidin-3-yl)ethyl)piperidin-4-yl)methyl)-3-methoxybenzamide] | ++ (++<0.6) | 11.3 µM | < 30 nM
COc1cc(C(=O)NC2CC(N(C)CCC3CCN(c4ccc5c(c4)C(=O)N(C4CCC(=O)NC4=O)C5=O)CC3)C2)ccc1Nc1ncc2c(n1)N(C1CCCC1)CC(F)(F)C(=O)N2C (stereo not drawn) [Compound 106, 4-((9-cyclopentyl-7,7-difluoro-5-methyl-6-oxo-6,7,8,9-tetrahydro-5H-pyrimido[4,5-b][1,4]diazepin-2-yl)amino)-N-(3-((2-(1-(2-(2,6-dioxopiperidin-3-yl)-1,3-dioxoisoindolin-5-yl)piperidin-4-yl)ethyl)(methyl)amino)cyclobutyl)-3-methoxybenzamide] | +++ (+++: <0.3) | > 10 µM | < 100 nM
COc1cc(C(=O)NC2CCN(C(=O)CCC3(O)CCN(c4cccc5c4C(=O)N(C4CCC(=O)NC4=O)C5=O)CC3)CC2)ccc1Nc1ncc2c(n1)N(C1CCCC1)CC(F)(F)C(=O)N2C (stereo not drawn) [Compound 63, 4-((9-cyclopentyl-7,7-difluoro-5-methyl-6-oxo-6,7,8,9-tetrahydro-5H-pyrimido[4,5-b][1,4]diazepin-2-yl)amino)-N-(1-(3-(1-(2-(2,6-dioxopiperidin-3-yl)-1,3-dioxoisoindolin-4-yl)-4-hydroxypiperidin-4-yl)propanoyl)piperidin-4-yl)-3-methoxybenzamide] | +++ (+++: <0.3) | > 10 µM | < 50 nM

The next lines start with results.

Activity: ratio of the luminescense value of each Exemplary Compound treatment group to DMSO treatment group (PLK1) | SMILES | IC50 (MRC-5 cell line) | IC50 (NCI-H526 cell line)
++ (++<0.6) | COc1cc(C(=O)N[C@H]2CC[C@H](N3CCN(c4ccc5c(c4)C(=O)N(C4CCC(=O)NC4=O)C5=O)CC3)CC2)ccc1Nc1ncc2c(n1)N(C(C)C)CC(F)(F)C(=O)N2C (stereo partly drawn) [Compound 150, 4-((7,7-difluoro-9-isopropyl-5-methyl-6-oxo-6,7,8,9-tetrahydro-5H-pyrimido[4,5-b][1,4]diazepin-2-yl)amino)-N-((1r,4r)-4-(4-(2-(2,6-dioxopiperidin-3-yl)-1,3-dioxoisoindolin-5-yl)piperazin-1-yl)cyclohexyl)-3-methoxybenzamide] | 19.3 µM | < 50 nM
++ (++<0.6) | COc1cc(C(=O)NC2CN(CC3CCN(c4cccc5c4C(=O)N(C4CCC(=O)NC4=O)C5=O)CC3)C2)ccc1Nc1ncc2c(n1)N(C1CCCC1)CC(F)(F)C(=O)N2C (stereo not drawn) [Compound 138, 4-((9-cyclopentyl-7,7-difluoro-5-methyl-6-oxo-6,7,8,9-tetrahydro-5H-pyrimido[4,5-b][1,4]diazepin-2-yl)amino)-N-(1-((1-(2-(2,6-dioxopiperidin-3-yl)-1,3-dioxoisoindolin-4-yl)piperidin-4-yl)methyl)azetidin-3-yl)-3-methoxybenzamide] | > 10 µM | < 50 nM
++ (++<0.6) | COc1cc(C(=O)NN2CC(N3CCN(c4ccc5c(c4)C(=O)N(C4CCC(=O)NC4=O)C5=O)CC3)C2)ccc1Nc1ncc2c(n1)N(C(C)C)CC(F)(F)C(=O)N2C (stereo not drawn) [Compound 159, 4-((7,7-difluoro-9-isopropyl-5-methyl-6-oxo-6,7,8,9-tetrahydro-5H-pyrimido[4,5-b][1,4]diazepin-2-yl)amino)-N-(3-(4-(2-(2,6-dioxopiperidin-3-yl)-1,3-dioxoisoindolin-5-yl)piperazin-1-yl)azetidin-1-yl)-3-methoxybenzamide] | 4.91 µM | < 30 nM
